Assay results: patent publication US9884849B2, “Fluorinated benzofuranyl-pyrimidine derivatives containing a sulfoximine group” (Bayer Pharma Aktiengesellschaft, priority 2014, dated 2018)

What was measured:
CDK9/CycT1 [1] = biological target: T1, CDK9/CycT1 (Homo sapiens, UniProt P50750); assay: CDK9/CycT1 high ATP kinase assay (Method 1b, TR-FRET); assay type: biochemical; conditions: 2 mM ATP; for Selectivity high ATP CDK9 over high ATP CDK2: IC50 (high ATP CDK2)/IC50 (high ATP CDK9): Methods 1b. and 2b.
T1 construct: Recombinant full-length His-tagged human CDK9 and CycT1; His; purchased Invitrogen PV4131; host or cells: insect cells
T1 sequence (P50750 whole entry): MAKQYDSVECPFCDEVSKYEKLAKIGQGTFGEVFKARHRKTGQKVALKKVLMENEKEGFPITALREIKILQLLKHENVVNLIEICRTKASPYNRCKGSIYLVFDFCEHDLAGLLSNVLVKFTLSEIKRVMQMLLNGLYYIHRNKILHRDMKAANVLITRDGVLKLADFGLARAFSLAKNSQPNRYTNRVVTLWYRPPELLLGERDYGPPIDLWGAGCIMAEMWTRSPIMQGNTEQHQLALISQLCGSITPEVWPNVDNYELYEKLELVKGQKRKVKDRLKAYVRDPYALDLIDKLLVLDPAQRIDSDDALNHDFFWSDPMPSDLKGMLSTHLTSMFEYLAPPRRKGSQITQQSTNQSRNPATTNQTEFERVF
T1 sequence (O60563 whole entry partner): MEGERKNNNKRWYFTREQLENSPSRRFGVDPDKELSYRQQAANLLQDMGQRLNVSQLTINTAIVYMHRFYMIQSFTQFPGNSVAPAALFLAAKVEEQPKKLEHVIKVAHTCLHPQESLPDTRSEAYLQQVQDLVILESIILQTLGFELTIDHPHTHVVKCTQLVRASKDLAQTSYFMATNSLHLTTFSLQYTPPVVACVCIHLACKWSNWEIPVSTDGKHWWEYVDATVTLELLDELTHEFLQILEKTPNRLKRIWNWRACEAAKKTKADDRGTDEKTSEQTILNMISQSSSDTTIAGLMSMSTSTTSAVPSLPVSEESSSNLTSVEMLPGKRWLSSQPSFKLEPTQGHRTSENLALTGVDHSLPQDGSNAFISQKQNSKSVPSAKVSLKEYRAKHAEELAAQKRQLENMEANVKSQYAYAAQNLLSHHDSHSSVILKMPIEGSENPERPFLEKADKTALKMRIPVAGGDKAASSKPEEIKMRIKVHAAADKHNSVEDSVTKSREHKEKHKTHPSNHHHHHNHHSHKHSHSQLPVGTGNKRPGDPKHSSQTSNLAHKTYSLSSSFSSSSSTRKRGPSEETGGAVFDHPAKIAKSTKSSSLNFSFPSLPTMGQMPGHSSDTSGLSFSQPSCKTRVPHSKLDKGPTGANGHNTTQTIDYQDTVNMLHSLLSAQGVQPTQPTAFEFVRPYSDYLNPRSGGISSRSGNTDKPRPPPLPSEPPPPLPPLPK
Experimental: 1b. CDK9/CycT1 High ATP Kinase Assay
CDK9/CycT1-Inhibitory Activity of Compounds of the Present Invention at a High ATP Concentration after Preincubation of Enzyme and Test Compounds was Quantified Employing the CDK9/CycT1 TR-FRET Assay as Described in the Following Paragraphs.
(§1) Recombinant full-length His-tagged human CDK9 and CycT1, expressed in insect cells and purified by Ni-NTA affinity chromatography, were purchase from Invitrogen (Cat. No PV4131). As substrate for the kinase reaction biotinylated peptide biotin-Ttds-YISPLKSPYKISEG (C-terminus in amid form) was used which can be purchased e.g. form the company JERINI peptide technologies (Berlin, Germany). For the assay 50 nl of a 100 fold concentrated solution of the test compound in DMSO was pipetted into a black low volume 384 well microtiter plate (Greiner Bio-One, Frickenhausen, Germany), 2 μl of a solution of CDK9/CycT1 in aqueous assay buffer [50 mM Tris/HCl pH 8.0, 10 mM MgCl2, 1.0 mM dithiothreitol, 0.1 mM sodium ortho-vanadate, 0.01% (v/v) Nonidet-P40 (Sigma)] were added and the mixture was incubated for 15 min at 22° C. to allow pre-binding of the test compounds to the enzyme before the start of the kinase reaction. Then the kinase reaction was started by the addition of 3 μl of a solution of adenosine-tri-phosphate (ATP, 3.3 mM=>final conc. in the 5 μl assay volume is 2 mM) and substrate (1.67 μM=>final conc. in the 5 μl assay volume is 1 μM) in assay buffer and the resulting mixture was incubated for a reaction time of 25 min at 22° C. The concentration of CDK9/CycT1 was adjusted depending of the activity of the enzyme lot and was chosen appropriate to have the assay in the linear range, typical concentrations were in the range of 0.5 μg/mL. The reaction was stopped by the addition of 5 μl of a solution of TR-FRET detection reagents (0.2 μM streptavidine-XL665 [Cisbio Bioassays, Codolet, France] and 1 nM anti-RB(pSer807/pSer811)-antibody from BD Pharmingen [#558389] and 1.2 nM LANCE EU-W1024 labeled anti-mouse IgG antibody [Perkin-Elmer, product no. AD0077]) in an aqueous EDTA-solution (100 mM EDTA, 0.2% (w/v) bovine serum albumin in 100 mM HEPES/NaOH pH 7.0).
(§2) The resulting mixture was incubated 1 h at 22° C. to allow the formation of complex between the phosphorylated biotinylated peptide and the detection reagents. Subsequently the amount of phosphorylated substrate was evaluated by measurement of the resonance energy transfer from the Eu-chelate to the streptavidine-XL. Therefore, the fluorescence emissions at 620 nm and 665 nm after excitation at 350 nm was measured in a HTRF reader, e.g. a Rubystar (BMG Labtechnologies, Offenburg, Germany) or a Viewlux (Perkin-Elmer). The ratio of the emissions at 665 nm and at […] was taken as the measure for the amount of phosphorylated substrate. The data were normalised (enzyme reaction without inhibitor=0% inhibition, all other assay components but no enzyme=100% inhibition).

CDK9/CycT1 [2] = biological target: T1, CDK9/CycT1; assay: CDK9/CycT1 kinase assay (Method 1a, TR-FRET); assay type: biochemical; conditions: 10 μM ATP; for Selectivity CDK9 over CDK2: IC50 (CDK2)/IC50 (CDK9): Methods 1a. and 2a.
From the text: 1a. CDK9/CycT1 Kinase Assay:
CDK9/CycT1-Inhibitory Activity of Compounds of the Present Invention was Quantified Employing the CDK9/CycT1 TR-FRET Assay as Described in the Following Paragraphs:
as §1, with “were purchased” for “were purchase”, “JERINI Peptide Technologies” for “JERINI peptide technologies”, “(ATP, 16.7 μM=>final” for “(ATP, 3.3 mM=>final”, “is 10 μM)” for “is 2 mM)”, “of 1” for “of 0.5”
as §2

IC50 (CDK9/CycT1 [1]) [nM]	Selectivity high ATP CDK9 over high ATP CDK2: IC50 (high ATP CDK2)/IC50 (high ATP CDK9) (CDK9/CycT1 [1])	IC50 (CDK9/CycT1 [2]) [nM]	Selectivity CDK9 over CDK2: IC50 (CDK2)/IC50 (CDK9) (CDK9/CycT1 [2])	Structure (SMILES)
0.9	622	2.3	32	CS(=O)(Cc1cccc(Nc2ncc(F)c(-c3ccc(F)c4ccoc34)n2)c1)=NC#N (racemic) [Example 1, (rac)-[(3-{[5-Fluoro-4-(4-fluoro-1-benzofuran-7-yl)pyrimidin-2-yl]amino}benzyl)(methyl)oxido-λ^6-sulfanylidene]cyanamide]
22	23	4.6	24	CS(=N)(=O)Cc1cccc(Nc2ncc(F)c(-c3ccc(F)c4ccoc34)n2)c1 (racemic) [Example 4, (rac)-5-Fluoro-4-(4-fluoro-1-benzofuran-7-yl)-N-{3-[(S-methylsulfonimidoyl)-methyl]phenyl}-pyrimidin-2-amine]
1.9	343	4.1	14	CS(=O)(Cc1cc(F)cc(Nc2ncc(F)c(-c3ccc(F)c4ccoc34)n2)c1)=NC#N (racemic) [Example 7, (rac)-[(3-Fluoro-5-{[5-fluoro-4-(4-fluoro-1-benzofuran-7-yl)pyrimidin-2-yl]amino}benzyl)(methyl)-oxido-λ^6-sulfanylidene]cyanamide]
3.2	563	3.1	16	CS(=N)(=O)Cc1cc(F)cc(Nc2ncc(F)c(-c3ccc(F)c4ccoc34)n2)c1 (racemic) [Example 10, (rac)-5-Fluoro-4-(4-fluoro-1-benzofuran-7-yl)-N-{3-fluoro-5-[(S-methylsulfonimidoyl)-methyl]-phenyl}-pyrimidin-2-amine]
0.88	1364			Cc1cc(CS(C)(=O)=NC#N)cc(Nc2ncc(F)c(-c3ccc(F)c4ccoc34)n2)c1 (racemic) [Example 13, (rac)-[(3-{[5-Fluoro-4-(4-fluoro-1-benzofuran-7-yl)pyrimidin-2-yl]amino}-5-methylbenzyl)-(methyl)oxido-λ^6-sulfanylidene]cyanamide]
6.4	77	4.9	16	Cc1cc(CS(C)(=N)=O)cc(Nc2ncc(F)c(-c3ccc(F)c4ccoc34)n2)c1 (racemic) [Example 16, (rac)-5-Fluoro-4-(4-fluoro-1-benzofuran-7-yl)-N-{3-methyl-5-[(S-methylsulfonimidoyl)-methyl]phenyl}pyrimidin-2-amine]
7.4	197	8	33	CS(=O)(Cc1cc(Nc2ncc(F)c(-c3ccc(F)c4ccoc34)n2)cc(S(F)(F)(F)(F)F)c1)=NC#N (racemic) [Example 17, (rac)-{[3-{[5-fluoro-4-(4-fluoro-1-benzofuran-7-yl)pyrimidin-2-yl]amino}-5-(pentafluoro-λ^6-sulfanyl)benzyl](methyl)oxido-λ^6-sulfanylidene}cyanamide]
4.4	350	2.9	25	CS(=N)(=O)Cc1cc(Nc2ncc(F)c(-c3ccc(F)c4ccoc34)n2)cc(S(F)(F)(F)(F)F)c1 (racemic) [Example 18, (rac)-5-Fluoro-4-(4-fluoro-1-benzofuran-7-yl)-N-{3-[(S-methylsulfonimidoyl)methyl]-5-(pentafluoro-λ^6-sulfanyl)phenyl}pyrimidin-2-amine]
1.1	321	1.4	14	CS(=O)(Cc1cccc(Nc2ncc(F)c(-c3ccc(F)c4ccoc34)n2)c1)=NC#N (single isomer, unassigned) [Example 2, [(3-{[5-Fluoro-4-(4-fluoro-1-benzofuran-7-yl)pyrimidin-2-yl]amino}benzyl)(methyl)oxido-λ^6-sulfanylidene]cyanamide]
1	475	3.3	14	CS(=O)(Cc1cccc(Nc2ncc(F)c(-c3ccc(F)c4ccoc34)n2)c1)=NC#N (single isomer, unassigned) [Example 3, [(3-{[5-Fluoro-4-(4-fluoro-1-benzofuran-7-yl)pyrimidin-2-yl]amino}benzyl)(methyl)oxido-λ^6-sulfanylidene]cyanamide]
5.6	143	3.7	24	CS(=N)(=O)Cc1cccc(Nc2ncc(F)c(-c3ccc(F)c4ccoc34)n2)c1 (single isomer, unassigned) [Example 5, 5-Fluoro-4-(4-fluoro-1-benzofuran-7-yl)-N-{3-[(S-methylsulfonimidoyl)-methyl]-phenyl}-pyrimidin-2-amine]
3.2	313	2.6	22	CS(=N)(=O)Cc1cccc(Nc2ncc(F)c(-c3ccc(F)c4ccoc34)n2)c1 (single isomer, unassigned) [Example 6, 5-Fluoro-4-(4-fluoro-1-benzofuran-7-yl)-N-{3-[(S-methylsulfonimidoyl)-methyl]-phenyl}-pyrimidin-2-amine]
3.7	247			CS(=N)(=O)Cc1cc(F)cc(Nc2ncc(F)c(-c3ccc(F)c4ccoc34)n2)c1 (single isomer, unassigned) [Example 11, 5-Fluoro-4-(4-fluoro-1-benzofuran-7-yl)-N-{3-fluoro-5-[(S-methylsulfonimidoyl)-methyl]-phenyl}-pyrimidin-2-amine]
